Data as given in patent US10077446B2, “Glucan-encapsulated siRNA for treating type 2 diabetes mellitus” (The United States of America, as represented by THE …, priority 2013, dated 2018).

Columns and labels:
[1] = test system: Zucker diabetic fatty (ZDF) rats; assay: 12-week JD5037 treatment of 6-week-old pre-diabetic ZDF rats; assay type: in vivo, rat; conditions: pre-diabetic 6-week-old ZDF rats, daily JD5037 for 3 months
Description: In the first one, 8-week old diabetic ZDF rats were given 3 mg/kg JD5037 or vehicle for 28 days with lean controls receiving vehicle only. In the second protocol, similar treatment was started in 6-week old pre-diabetic ZDF rats and age-matched lean controls, and treatment continued for 12 weeks until the age of 18 weeks. Body weight and food intake were monitored daily. At the end of treatment in both protocols, rats were sacrificed by decapitation, the brain, liver, kidney, pancreas and combined fat pads were removed, weighed, and snap-frozen in liquid nitrogen or fixed in formalin, and trunk blood was collected for determining endocrine and biochemical parameters. Adiposity index was defined as the combined weight of the epidydimal, retroperitoneal and inguinal fat pads, expressed as % of total body weight. […]
Blood glucose levels were determined using the Elite glucometer (Bayer, Pittsburgh, Pa.). […] Plasma insulin was measured using the Ultra Sensitive rat Insulin ELISA kit (Crystal Chem Inc). Hemoglobin A1c was determined using the Rat Hemoglobin A1c (HbA1c) assay kit (Crystal Chem) and c-peptide was quantified by ELISA (C-peptide (rat) ELISA, ALPCO). Serum leptin and adiponectin were determined by ELISA (B-Bridge International). α-amylase, lipase, and uric acid concentrations were determined using commercially available colorimetric kits (BioAssay Systems). […]

[2] = test system: Zucker diabetic fatty (ZDF) rats; assay: Glucose-stimulated insulin secretion in intact ZDF rats and isolated islets; assay type: in vivo, rat
Description: Rats were fasted for 12 h, and tail blood was collected to determine basal insulin and c-peptide levels. Rats were then given glucose (3 g/kg) orally by gavage, and, 5 minutes later, tail blood was again collected for determining insulin and c-peptide levels, with the difference over baseline insulin considered as a measure of glucose-induced insulin release, and the comparison with parallel changes in c-peptide levels used to assess the role of insulin production vs. clearance in the observed change in plasma insulin levels.
After 4 days recovery, pancreata from treated animals were inflated via the common bile duct with a solution of LIBERASE™ TL Research Grade (1.18 U/ml, Roche Diagnostics) and digested for 30 min at 37° C. Islets were purified on a discontinuous Ficoll gradient (GE HEALTHCARE) and hand-picked under a stereomicroscope for immediate assessment of […] function by static incubation. Right after isolation, batches of 4 islets were pre-incubated for 2 h in RPMI 1640 containing NaHCO3 (2 g/l), HEPES (25 mM), 10% (v/v) neonatal calf serum (Invitrogen), pH 7.2, and 0.5 g/L glucose at 37° C. in an incubator containing 5% CO2. This was followed by successive 1 h incubations in the presence of 0.5, 1, 1.5, 2, and 3 g/L glucose. Supernatants were collected in each step for insulin quantification (Crystal Chem Inc). […]

[3] = test system: Zucker diabetic fatty (ZDF) rats; assay: 28-day oral JD5037 treatment of 8-week-old diabetic ZDF rats; assay type: in vivo, rat
From the text: Zucker diabetic fatty (ZDF) rats were used to assess the role of endocannabinoids and CB1R in glycemic control and β-cell loss Animal protocols were approved by the Institutional Animal Care and Use Committee of the NIAAA, NIH. Male ZDF rats with their lean controls were obtained from Charles River Laboratories (Wilmington, Mass. 01887, USA). Rats were individually housed and maintained under a 12-h light/dark cycle and fed ad libitum with a standard laboratory diet (STD, NIH-31 rodent diet).
ZDF rats received JD5037 or vehicle (4% DMSO+1% Tween 80 in PBS) by oral gavage according to 2 different protocols. JD5037 was synthesized and its pharmacological properties analyzed as described earlier (Tam, et al. 2012 Cell Metab 16, 167-179). […]
In the first one, 8-week old diabetic ZDF rats were given 3 mg/kg JD5037 or vehicle for 28 days with lean controls receiving vehicle only. In the second protocol, similar treatment was started in 6-week old pre-diabetic ZDF rats and age-matched lean controls, and treatment continued for 12 weeks until the age of 18 weeks. Body weight and food intake were monitored daily. At the end of treatment in both protocols, rats were sacrificed by decapitation, the brain, liver, kidney, pancreas and combined fat pads were removed, weighed, and snap-frozen in liquid nitrogen or fixed in formalin, and trunk blood was collected for determining endocrine and biochemical parameters. Adiposity index was defined as the combined weight of the epidydimal, retroperitoneal and inguinal fat pads, expressed as % of total body weight. In the second protocol, blood samples were taken weekly to assess the progression of T2DM by measuring blood glucose and monthly to measure insulin and c-peptide levels.
Blood glucose levels were determined using the Elite glucometer (Bayer, Pittsburgh, Pa.). […] Plasma insulin was measured using the Ultra Sensitive rat Insulin ELISA kit (Crystal Chem Inc). Hemoglobin A1c was determined using the Rat Hemoglobin A1c (HbA1c) assay kit (Crystal Chem) and c-peptide was quantified by ELISA (C-peptide (rat) ELISA, ALPCO). Serum leptin and adiponectin were determined by ELISA (B-Bridge International). α-amylase, lipase, and uric acid concentrations were determined using commercially available colorimetric kits (BioAssay Systems). TNF-α and IL-1β were determined using TNF-α ELISA Kit (for Lysates) (RayBiotech, Inc.) and IL1β Rat ELISA Kit (Abeam), respectively.
To determine intra-hepatic triglyceride and cholesterol content, liver tissue was extracted as described previously (Folch, et al. 1957 J Biol Chem 226:497-509). After extraction, 0.5 ml of organic phase was transferred to a clean tube containing 1 ml of 2% Triton X-100 in chloroform and dried using nitrogen. The residue was re-solubilized in 1 ml of distilled water and used for triglycerides content using EnzyChrom™ Triglyceride Assay Kit.
Pancreas was fixed in 10% neutral buffered formalin (NBF), embedded in paraffin and sectioned ([…]) onto glass slides. […] For detection, secondary Ab coupled to FITC or PE were used (Table 2). Images were viewed with a Fluoview FV10i confocal microscope system (Olympus). […]

[4] = test system: Zucker diabetic fatty (ZDF) rats; assay: Hyperinsulinemic euglycemic clamp in ZDF rats; assay type: in vivo, rat
Description: Clamps and glucose tracer analyses in conscious, cannulated rats were performed as described: right jugular vein of 3 rats per group was catheterized a week prior to the experiment, and clamps were performed by continuous infusion of insulin at 3 mU/kg/min and co-infusion of 3H-D-glucose to maintain euglycemia. The protocol for radioactive clamps to evaluate glucose fluxes was adapted from Buettner, et al. (Buettner, et al. 2005 J Clin Invest 115:1306-1313). 3H-D-glucose (Perkin Elmer) was first infused at 0.8 μCi/min for one minute and then at 0.04 μCi/min for 2 h prior to insulin infusion, and the tritiated glucose infusion was pursued during the rest of the experiment at the same rate. 10 μl of blood were sampled from the tail 15 and 5 min before starting insulin infusion and 30, 20, 10 minutes before the end of the experiment.
Blood samples were centrifuged in order to obtain serum. Serum was snap frozen on dry ice and, once all the samples were available, 5 μl serum was transferred to 25 μl dionized water and then mixed with 25 μl of 0.1N ZnSO4. Samples were precipitated with addition of 25 μl of 0.1N Ba(OH)2. After centrifugation, the supernatant was dried overnight, resuspended in water, and counted in scintillation liquid. Glucose turnover was calculated as the ratio of tritiated glucose infusion rate over the specific activity of blood glucose.

[5] = test system: RAW264.7 macrophages; assay: Proinflammatory signaling in cultured RAW264.7 macrophages; assay type: cell-based, mouse; conditions: 4 h
Description: (§1) Mouse RAW264.7 macrophages (ATCC, Manassas, Va.) were cultured as previously described (Liu, et al. 2003 J Biol Chem 278:45034-45039) and were either treated during 4 hours with various concentrations of AEA (0.1, 0.5, 1, and 10 μM) and/or JD5037 (100 nM) or treated with 30 ng/mL of IL-1β (Abcam Ab9723). Mouse MIN6 insulinoma cells were a gift from NIDDK and were cultured in low glucose DMEM (Gibco 11885) supplemented with 15% FBS (BenchMark 100-006) and 1% antibiotic antimycotic cocktail (Invitrogen 15240-096). Cells were either treated during 4 hours with various concentrations of AEA (0.5, 1 and 5 μM) or treated with 30 ng/mL of IL-1β (Abcam Ab9723).
(§2) For both cell types, medium was collected and immediately frozen in liquid nitrogen. Cells were washed twice in ice-cold sterile PBS before harvesting. EC (endocannabinoid) levels were determined as previously 3, secretion of IL-1β, IL-18, TNF-α and MCP-1 in the medium were determined using ELISA kits (Biosensis BEK-2151-2P, Uscn Life Science & Technology Company E90064Mu, Biosensis BEK-2102-2P, Uscn Life Science & Technology Company E90087Mu, respectively).
(§3) Total mRNA from the liver, pancreas and kidney were extracted with Trizol (Invitrogen), while total mRNA from cells was extracted using RNEASY™ Mini Kit (Qiagen). All extractions were followed by DNase I treatment (Invitrogen). Total mRNA was reverse-transcribed using the ISCRIPT™ cDNA kit (Bio-Rad). Real-time PCR was performed as described previously (Jourdan, et al. 2010 Diabetes 59:926-934) in a 96-well plate using a STEPONEPLUS™ real time PCR system (Applied Biosystems). QUANTITECT™ Primer Assays were used to detect gene expression (Table 3, which lists the primers used for rat and mice (tissue)). Expression of the gene of interest is reported as a relative value comparing it to the geometric average of 18S, L19, L38 and TATA box binding protein expression.

[6] = test system: MIN6 insulinoma cells; assay: Cytokine, apoptotic gene, insulin and CB1R expression in MIN6 insulinoma cells; assay type: cell-based, mouse
Description: as §1, §2
MIN6 cells were treated either with vehicle, IL-1β (30 ng/mL), IL1R antagonist (10 ng/mL) for 3 hours or pre-treated 1 h with IL1R antagonist (10 ng/mL) followed by 3 h incubation with IL-1β (30 ng/mL). […] Blot quantification was performed using the gel analysis options of image J software.
as §3

[7] = ZDF rats, 3 mg/kg JD5037 oral, 28 days
[8] = plasma, ZDF rats, 3 mg/kg/day JD5037 for 28 days, mean ± SEM

CC(C)[C@H](N/C(=N\S(=O)(=O)c1ccc(Cl)cc1)N1C[C@H](c2ccccc2)C(c2ccc(Cl)cc2)=N1)C(N)=O [JD5037, (S)-2-((S,E)-3-(4-chlorophenyl)-N′-((4-chlorophenyl)sulfonyl)-4-phenyl-4,5-dihydro-1H-pyrazole-1-carboximidamido)-3-methylbutanamide]
hyperglycemia [1]: attenuated and its development delayed
rapid decline in plasma insulin and c-peptide [1]: largely prevented
elevated basal insulin levels ([2]; ZDF rats, JD5037-treated): did not affect
GSIS (glucose-stimulated insulin secretion) ([2]; both in vivo and in vitro (isolated islets)): restored
elevated Nlrp3, IL-1β, IL-18, p65 NFκB, caspase-1 activity, TXNIP and IL-1 receptor mRNA ([3]; ZDF islets/pancreas, JD5037 28 days): completely reversed
ASC mRNA ([3]; ZDF pancreas, JD5037 4 weeks): normalized
small increase in AIM-2 expression ([3]; ZDF pancreas, JD5037 4 weeks): unaffected
expression of the IL-1R antagonist ([3]; ZDF pancreas, JD5037 28 days): increased
body weight or adiposity [3, 7]: did not affect
food intake [3, 7]: small reduction
hyperglycemia of ZDF rats [3, 7]: completely reversed
hyperinsulinemia (along with increased C-peptide levels) [3, 7]: paradoxically enhanced
steatosis, associated hepatocellular damage, increased lipogenic gene expression [3, 7]: greatly attenuated
fasting blood glucose and HbA1c ([3]; ZDF rats, 3 mg/kg JD5037 oral, 28 days, FIG. 1c): normalizes
Tunel-positive islet cells ([3]; ZDF rats, JD5037 4 weeks): reduced number
decreased plasma adiponectin and pancreatic expression of adipoR1 and adipoR2 ([3]; ZDF rats, JD5037 4 weeks): reversed
insulin mRNA and protein in ZDF islets ([3]; ZDF rats, JD5037 4 weeks): normalized
reduced pancreatic expression of glucokinase (Glck) and Glut2 ([3]; ZDF rats, JD5037 4 weeks): normalized
increased pancreatic anandamide levels ([3]; ZDF rats, JD5037 4 weeks, LC/MS/MS): normalized
macrophage infiltration of islets ([3]; ZDF rats, JD5037 28 days): reduced
rise in expression of CB1R in islets ([3]; ZDF vs. lean rats, JD5037 4 weeks): reversed
Adiponectin [3, 8]: 5.70 ± 0.07 µg/mL
Cholesterol [3, 8]: 104.8 ± 3.85 mg/dL
IL-1β [3, 8]: 7.63 ± 0.78 ng/mL
Leptin [3, 8]: 9.48 ± 0.31 ng/mL
TG [3, 8]: 817.6 ± 31.36 mg/dL
TNF-α [3, 8]: 0.83 ± 0.07 pg/mL
Uric acid [3, 8]: 2.57 ± 0.04 µg/mL
insulin resistance [4]: not significantly affected
peripheral glucose uptake ([4]; FIG. 1d): slightly improves

CCCCC/C=C\C/C=C\C/C=C\C/C=C\CCCC(=O)NCCO [anandamide]
concentration at which peak changes in cytokine secretion were observed ([5]; RAW264.7 cells): 0.5 µM
secretion of IL-1β, TNF-α, and MCP-1 ([5]; RAW264.7 cells): markedly increased
CB2R expression ([5]; RAW264.7 macrophages): without affecting
expression of Nlrp3 and caspase-1 ([5]; RAW264.7 macrophages): robustly increased
maximally effective concentration for reducing insulin gene expression [6]: 0.5 µM
pro- and anti-apoptotic gene expression ([6]; 0.5 μM anandamide): little or no effect
levels of IL-1β, TNF-α, and MCP-1 in the medium ([6]; 4 h): did not affect

IL-1β: interleukin-1β (Abcam Ab9723)
maximally effective concentration for reducing insulin gene expression [6]: 30 ng/mL
CB1R mRNA and protein ([6]; 30 ng/mL IL-1β): drastically reduced
anti-apoptotic genes Bcl-2 and Bcl-xl ([6]; 30 ng/mL IL-1β): drastically suppressed
pro-apoptotic genes Bak and Bax ([6]; 30 ng/mL IL-1β): markedly induced

IL-1R antagonist: IL-1 receptor antagonist used at 10 ng/mL in MIN6 cells
IL-1β-induced reduction of CB1R mRNA and protein ([6]; IL-1R antagonist 10 ng/mL): blocked
